Test results from patent publication US9302004B2, “Phenalene-1-one derivatives, method for producing same and use thereof” (TRIOPTOTEC GMBH, priority 2011, dated 2016).
Structures can show the parent of a compound that is named as a salt.

What was measured:
Format in all cases: cell-based
[1] = system: Staphylococcus aureus (ATCC number: 25923); assay: Phototoxicity test (photodynamic activity, CFU assay) against gram-positive bacteria; conditions: for Required concentration in order to achieve a reduction by ≧ 3 log10 steps: S. aureus, 15 min incubation in darkness, then irradiation 12.3 J/cm^2 blue light (Emax 418 nm), CFU/ml 24 h after; for antimicrobial action compared with the starting substance perinaphthenone: from Table 1 (S. aureus and E. coli, sentence does not separate them), reduction of the germ count by 3 log10 steps; for times lower concentration needed to achieve a reduction by 3 log10 steps, compared with perinaphthenone: phototoxicity test, Table 1 (S. aureus and E. coli, sentence does not separate them)
Description: (§1) A sample of the bacterial strain Staphylococcus aureus (ATCC number: 25923) or Escherichia coli (ATCC number: 25922) was extracted from a cryogenically frozen culture, isolated on Müller-Hinton agar plates, and cultured under aerobic conditions at 37° C. in an overnight culture. 10 ml Müller-Hinton liquid medium was then inoculated with a smear of the bacterial culture (individual colony) and incubated overnight at 37° C. The thus-obtained bacterial suspension was centrifuged for 15 min at 3000 rpm and the obtained bacterial pellet was resuspended in 10 ml sterile PBS. The optical density of the bacterial suspensions for the phototoxicity tests was OD600nm=0.6, which corresponds to a bacterial count of ˜[…] bacteria per ml. The biochemical analysis and resistance determination of the bacteria were carried out with the VITEK2 system according to the guidelines M100-S14 of the NCCLS (National Committee for Clinical Laboratory Standards guidelines 2004).
(§2) 200 μl of a bacterial suspension (bacterial density: 10^8-10^12/ml) was incubated with 200 μl each of different concentrations of the photosensitizers listed in Table 1 at 37° C. in darkness for 15 minutes. The bacteria were then washed twice with PBS, resuspended in 200 μl PBS, the entire volume was transferred to a 96-well microtiter plate and then irradiated.
(§3) For the sensitization, the UV 236 lamp (emission 380-480 nm, with an emission maximum Emax: 418 nm) from Waldmann Medizintechnik was used and the plates lying on the light source were irradiated from below, in order to prevent scattering through the liquid. The applied light dose was 12.3 J/cm^2. As controls, bacterial suspensions that were irradiated, not irradiated and only incubated with photosensitizer were entrained, and incubated both with and without photosensitizer.
(§4) The CFU assay was then carried out to determine the colony-forming units per ml (CFU). For this, a series of dilutions from 10^−1 to 10^−9 of the corresponding bacterial suspension was produced. 100 μl was then plated onto Müller-Hinton plates and incubated at 37° C. for 24 h. The number of surviving colonies was then determined by counting and plotted on a graph as colony-forming units (CFU) per ml against the respectively used photosensitizer concentration.

[2] = system: Escherichia coli (ATCC number: 25922); assay: Phototoxicity test (photodynamic activity, CFU assay) against gram-negative bacteria; conditions: E. coli; 15 min incubation in darkness, then irradiation 12.3 J/cm^2 blue light (Emax 418 nm); CFU/ml 24 h after
Description: as §1, §2, §3, §4

[3] = system: S. aureus; assay: Surface disinfection of catheter tubes, cell count after illumination; conditions: catheter sections with dried S. aureus; 5 min in darkness, 12.3 J/cm^2 blue light (Emax 418 nm) for 30 min
Description: 5-cm long catheter sections were filled with 1 ml of a stable S. aureus solution (1 E+12 cfu/ml) and incubated overnight at 37° C. After drying-out of the solution, in each case 2 ml of a solution of PBS which contained a corresponding concentration (0, 1, 10, 50, 80 and 100 μM) of the compounds produced in Examples 2), 4b), 5b), 7) and 10) and 1H-phenalene-1-one was sprayed. After a short exposure time of 5 minutes in darkness, the catheter sections were illuminated with a light dose of 12.3 J/cm^2 with blue light (Emax: 418 nm) for a period of 30 min.
As a control, in each case non-illuminated catheter sections were used, to which the corresponding concentrations (0, 1, 10, 50, 80 and 100 μM) of the compounds produced in Examples 1b)-f) and 1H-phenalene-1-one were applied.
To determine the cell count, the illuminated and non-illuminated catheter sections were filled with 1 ml PBS and ultrasounded. Growth medium was added to the washing solution in different dilutions (10^0 to 10^7) and the solution was smeared onto agar plates. The cell count was performed after 24 h of incubation at 37° C.

| Compound | Required concentration in order to achieve a reduction by ≧ 3 log10 steps [1] | Required concentration in order to achieve a reduction by ≧ 3 log10 steps [2] | antimicrobial action compared with the starting substance perinaphthenone [1] | times lower concentration needed to achieve a reduction by 3 log10 steps, compared with perinaphthenone [1] | times lower concentration needed to achieve a reduction by 3 log10 steps, compared with perinaphthenone [3] |
| --- | --- | --- | --- | --- | --- |
| O=C1C=Cc2cccc3cccc1c23 [Comparison, perinaphthenone, reference compound] | 200 μM | 300 μM |  |  |  |
| NCC1=Cc2cccc3cccc(c23)C1=O [Example 2, 2-Aminomethyl-1H-phenalene-1-one] | 1 μM | 50 μM | improved antimicrobial action | approximately 10 times | approximately 10 times |
| NCCOCC1=Cc2cccc3cccc(c23)C1=O [Example 4b, 2-((2-Aminoethoxy)methyl)-1H-phenalene-1-one hydrochloride] | 50 μM | 300 μM | improved antimicrobial action | approximately 10 times | approximately 10 times |
| NCCOCCOCC1=Cc2cccc3cccc(c23)C1=O [Example 5b, 2-((2-(2-Aminoethoxy)ethoxy)methyl)-1H-phenalene-1-one hydrochloride] | 50 μM | 80 μM | improved antimicrobial action | approximately 10 times | approximately 10 times |
| O=C1C(C[n+]2ccccc2)=Cc2cccc3cccc1c23 [Example 7] | 80 μM | 10 μM | improved antimicrobial action | approximately 10 times | approximately 10 times |
| CC[N+](CC)(CC)CC1=Cc2cccc3cccc(c23)C1=O [Example 10, 2-((N,N,N-Triethyl)aminomethyl)-1H-phenalene-1-one hydrochloride] | 50 μM for S. aureus; 50 μM for E. coli | 50 μM for S. aureus; 50 μM for E. coli | improved antimicrobial action | approximately 10 times | approximately 10 times |
